Data set [1] is described as follows: Pharmacokinetic determination in rats (IV and PO, plasma, LCMS/MS). In kind it is in vivo, SD rats. Conditions: male SD rats; for AUC(0-inf): read-out: AUCo-∞; for half-life: read-out: T1/2 (converted). The procedure: SD rats were used as test animals to study the pharmacokinetic behavior of the example compounds in rats (plasma) after oral administration.
The example compounds of the present invention, made in house.
3 SD rats per group, male. Shanghai Jiesijie Experimental Animal Co., Ltd., animal production license number (SCXK (Shanghai) 2013-0006 N0.311620400001794).
Formulation of a drug for oral administration: 10% Captisol in 50 mM citrate buffer pH 5.0.
Formulation of 50 mM citric acid: 4.8 g of citric acid was weighed into a 1000 ml glass bottle, ultrapure water was added to 300 ml, and the mixture was magnetically stirred until completely dissolved, additional ultrapure water was then added to 500 ml to formulate 50 mM citric acid.
Formulation of a solution containing 50 mM citric acid (10% Captisol, PH = 5): 50 g of Captisol powder was weighed and added to a 1000 ml glass bottle, 300 ml of 50 mM citric acid was added, and the mixture was magnetically stirred until completely dissolved, then additional citric acid was added to 500 ml, and the PH was adjusted to 5 using 10 M NaOH.
The example compounds were weighed and dissolved in the solution and the mixture was shaken well and subjected to ultrasound treatment for 15 min to obtain a colorless clear solution with a concentration of 3 mg/mL.
Formulation of a drug for intravenous administration: 5%DMSO+10%Solutol HS15+85%PBS.
The example compounds were weighed, and 5% DMSO was added according to the total administration volume; the mixture was vortexed and sonicated for 2 min to ensure complete dissolution; then, 10% Solutol HS15 was added, and the mixture was vortexed and sonicated for 2 min to achieve complete dissolution; finally, 85% PBS was added, and the mixture was vortexed and sonicated for 5 min; the obtained mixture was filtered through a 0.22 um membrane to obtain a colorless, transparent, and clear solution with a concentration of 0.2 mg/mL.
3 SD rats per group, male; After overnight fasting, the animals were administered orally (PO) at a dose of 30 mg/kg with an administration volume of 10 mL/kg.
3 SD rats per group, male; After overnight fasting, the animals were administered intravenously (IV) at a dose of 1 mg/kg with an administration volume of 5 mL/kg.
0.2 mL of blood was collected from the jugular vein before administration and at 0.25 h, 0.5 h, 1.0 h, 2.0 h, 4.0 h, 6.0 h, 8.0 h, and 24.0 h after administration and placed in an EDTA-2K test tube, and the test tube was centrifuged at 6000 rpm for 6 min at 4°C to separate the plasma, which was stored at -20°C. the animals were fed 4 h after administration.
The final determination results obtained by applying the LCMS/MS method are shown in the table below: Table 8: Pharmacokinetic parameters of the compounds administered intravenously in rats

The next data set deals with GP2D. As to the kind of experiment: Inhibition of proliferation of KRAS G12D mutant tumor cell line GP2D (CellTiter-Glo). Particulars: read-out: GP2D IC50. (In general: In ATP-based viability assays light output follows the ATP content of the culture.)
Data set [2] in a line: Plasma stability test, mouse plasma.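 Note: test compound quantified by LC-MS using positive-mode electrospray ionization and MRM scanning, with an internal standard added in acetonitrile.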 Conditions: mouse, plasma. Format: in vitro ADME.
Description: (§1) Liquid chromatography-mass spectrometer, centrifuge, vortexer, pipette, continuous dispenser, 96-well plate, 50% methanol aqueous solution, acetonitrile solution containing internal standard, blank matrix (plasma of rat, dog, or human), Propantheline (propantheline bromide), Mevinolin (lovastatin), and test compound.
(§2) After whole blood was collected from animals or humans, it was placed in a test tube containing an anticoagulant and centrifuged at 3500 rpm for 10 min to collect the upper pale yellow plasma.
(§3) The compound was weighed and the stock solution was formulated with DMSO and the working solution was formulated with 100 mM phosphate buffer.
(§4) • Instrument: API4000 liquid chromatography-mass spectrometer, AB Company, USA; • the ion source was electrospray ionization source (ESI); • drying gas (N2) temperature was 500°C; • electrospray voltage was 5500V; • the detection method was positive ion detection; • the scanning method was selected reaction monitoring (MRM); • the scanning time was 0.1s.
A short description of data set [3]: Plasma stability test, dog plasma.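 Note: parent compound left in dog plasma quantified by LC-MS with positive electrospray ionization, selected reaction monitoring and an internal standard.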 Format: in vitro ADME. Particulars: dog, plasma.
Description: as §1, §2, §3, §4
A short description of data set [4]: Plasma stability test, human plasma.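 Note: test compound incubated in human plasma, quantified by LC-MS/MS (positive-ion ESI, MRM) against an internal standard.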 In kind it is in vitro ADME. Conditions: human, plasma.
Description: as §1, §2, §3, §4
The mark [5] stands for this setting: rat, in vivo, PO, 30 mg/kg, overnight fasting, plasma.
Where [6] appears, read: rat, in vivo, PO, 30 mg/kg, overnight fasting, plasma, read-out: Cmax.
[7] abbreviates: rat, in vivo, PO, 30 mg/kg, overnight fasting, plasma, read-out: Tmax.
The mark [8] stands for this setting: IV, 1 mg/kg, overnight fasting, plasma.
[9] abbreviates: PO, 30 mg/kg, overnight fasting, plasma.

Read-outs that look alike come from different tables or passages of the source.

Description for GP2D: Experimental method: When SNU-1, HPAF-II, Panc0403, AsPC-1 or GP2D cells were cultured to the appropriate confluence, and the SNU-1, HPAF-II, Panc0403, AsPC-1 or GP2D cells were collected. The cells were adjusted to the appropriate cell density using complete culture medium, the cell suspension was plated onto a 96-well plate at 90 µL per well, and the plate was placed in the incubator at 37°C and 5% CO2 for adherent culture overnight. Solutions of the compound with different concentrations were formulated using DMSO and culture medium. A vehicle control was set up. […] Then, CellTiter-Glo solution was added, and the obtained mixture was shaken and mixed evenly, incubated in the dark for 10 min, and read with a BioTek Synergy H1 microplate reader. […] Experimental data processing method: The luminescence signal value was used to calculate the inhibition rate. Graphpad Prism software was used to fit the concentration and inhibition rate to a nonlinear regression curve, so as to obtain the IC50 value.

For the compound `C#Cc1c(F)ccc2cc(O)cc(-c3nc4c5c(nc(OCC6(CN7CC8CC(=C(F)F)CC8C7)CC6)nc5c3F)N3C[C@H]5CC[C@H](N5)[C@H]3[C@H](C)O4)c12` (some centres unmarked) [Example 133], in data set [1] (setting [5]), the AUC(0-inf) turned out to be 6510 ng·h/mL and the half-life was 7 h. Also, the Cmax in data set [1] (setting [6]) stood at 588 ng/mL. The Tmax in data set [1] (setting [7]) stood at 4 h. In the data set with GP2D (Homo sapiens, GP2d, 72 h), the IC50 was 0.53 nM.

With `C#Cc1c(F)ccc2cc(O)cc(-c3nc4c5c(nc(OCC6(CN7C8CCC7CC(=C(F)F)C8)CC6)nc5c3F)N3C[C@H]5CC[C@H](N5)[C@H]3[C@H](C)O4)c12` [Example 134], the IC50 in the data set on GP2D (Homo sapiens, GP2d, 72 h) came out at 1 nM.

Take `C#Cc1c(F)ccc2cc(O)cc(-c3nc4c5c(nc(OCC6(CN7CCCC(=C(F)F)CC7)CC6)nc5c3F)N3C[C@H]5CC[C@H](N5)[C@H]3[C@H](CC)O4)c12` [Example 140]: in data set [1] (setting [5]), the AUC(0-inf) came out at 2280 ng·h/mL and the half-life was 11 h. For the same compound, the Cmax in data set [1] (setting [6]) was found to be 118 ng/mL. In data set [1] (setting [7]), the time to peak (Tmax) came out at 2 h. The IC50 in the data set on GP2D (Homo sapiens, GP2d, 72 h) stood at 0.79 nM.

As to `C#Cc1c(F)ccc2cc(O)cc(-c3nc4c5c(nc(OCC6(CN7CC8CC(=C(F)F)CC8C7)CC6)nc5c3F)N3C[C@H]5CC[C@H](N5)[C@H]3[C@H](CC)O4)c12` (some centres unmarked) [Example 141], in data set [1] (setting [5]), the AUC(0-inf) was 17300 ng·h/mL and the half-life was 18.9 h. Also, in data set [1] (setting [6]), the Cmax was 869 ng/mL. Further, in data set [1] (setting [7]), the time of peak concentration (Tmax) is 2 h. In addition, in the data set on GP2D (Homo sapiens, GP2d, 72 h), the IC50 was determined as 0.94 nM.

Regarding `[2H]C([2H])([2H])[C@@H]1Oc2nc(-c3cc(O)cc4ccc(F)c(C#C)c34)c(F)c3nc(OC([2H])([2H])C4(C([2H])([2H])N5CCC(=CF)CC5)CC4)nc(c23)N2C[C@H]3CC[C@H](N3)[C@@H]12` [Example 298], the IC50 with GP2D (Homo sapiens, GP2d, 72 h) stood at 0.28 nM.

Consider `CC[C@@H]1Oc2nc(-c3cc(N)cc(Cl)c3C(F)(F)F)c(F)c3nc(OCC4(CN5CCC(=CF)CC5)CC4)nc(c23)N2C[C@@H]3CC[C@@H](N3)[C@@H]12` [Example 322, 3-chloro-5-((5S,5aS,6R,9S)-5-ethyl-1-fluoro-12-((1-((4-(fluoromethylene)piperidin-1-yl)methyl)cyclopropyl)methoxy)-5a,6,7,8,9,10-hexahydro-5H-4-oxa-3,10a,11,13,14-pentaaza-6,9-methylnaphtho[1,8-ab]hept-2-yl)-4-(trifluoromethyl)aniline], for which, in data set [1] (setting [8]), the “AUCo-∞” value was found to be 219 ng·h/mL, the C0 was found to be 326 ng/mL, the CL is 76.2 mL/min/kg and the T1/2 amounted to 11.6 h. Moreover, the F in data set [1] (PO 30 mg/kg vs IV 1 mg/kg) is listed as 10%. In addition, in data set [1] (setting [9]), the “AUCo-∞” value amounted to 694 ng·h/mL, the Cmax came out at 40 ng/mL, the T1/2 worked out at 10.4 h and the Tmax turned out to be 6.0 h. For the same compound, the IC50 with GP2D (proliferation, about 72 h, CellTiter-Glo) is 0.61 nM.

`C#Cc1c(F)ccc2cc(O)cc(-c3nc4c5c(nc(OCC6(CN7CCC(=NOC)C8(CC8)C7)CC6)nc5c3F)N3C[C@H]5CC[C@H](N5)[C@H]3[C@H](C)O4)c12` [Example 342, 5-((1-((((5S,5aS,6S,9R)-2-(8-ethynyl-7-fluoro-3-hydroxynaphthalen-1-yl)-1-fluoro-5-methyl-5a,6,7,8,9,10-hexahydro-5H-4-oxa-3,10a,11,13,14-pentaaza-6,9-methylnaphtho[1,8-ab]heptene-12-yl)oxy)methyl)cyclopropyl)methyl)-5-azaspiro[2.5]octan-8-one O-methyloxime]: the IC50 with GP2D (Homo sapiens, GP2d, 72 h) turned out to be 0.41 nM.

Regarding `C#Cc1c(F)ccc2cc(O)cc(-c3nc4c5c(nc(OCC6(CN7CC8CCC7CC8=NOC)CC6)nc5c3F)N3C[C@H]5CC[C@H](N5)[C@H]3[C@H](C)O4)c12` [Example 345], in the data set on GP2D (Homo sapiens, GP2d, 72 h), the IC50 is 0.18 nM.

For `CC(C)[N+](C)(CCOC(=O)C1c2ccccc2Oc2ccccc21)C(C)C` [Propantheline bromide, propantheline bromide, reference compound], the values for the half-life in data set [2], in data set [3] and in data set [4] were 0.462 h, 1.34 h and 0.27 h, respectively. For the same compound, the “Remaining rate (%) 0 min” value in data set [2] (0 h), in data set [3] (0 h) and in data set [4] (0 h) was 100.00% throughout. In addition, the entries for the “Remaining rate (%) 15 min” value in data set [2] (0.25 h), in data set [3] (0.25 h) and in data set [4] (0.25 h) were 79.79%, 95.25% and 26.78%, respectively. Also, the “Remaining rate (%) 30 min” value was 48.66% in data set [2] (0.5 h), 95.45% in data set [3] (0.5 h) and 5.05% in data set [4] (0.5 h). In addition, the “Remaining rate (%) 60 min” value was determined as 23.39% in data set [2] (1 h), 75.66% in data set [3] (1 h) and 0.25% in data set [4] (1 h). The results for the “Remaining rate (%) 120 min” value in data set [2] (2 h), in data set [3] (2 h) and in data set [4] (2 h) were 6.66%, 36.25% and 0.05%, respectively.

The Cmax is the maximum level reached in the sampled fluid or tissue. By Tmax is commonly meant the time from dosing to the highest level. As usually defined, the IC50 is the concentration that inhibits the measured activity by half.

The record behind these values is EP4635958A1, “PYRIMIDINE-CONTAINING POLYCYCLIC DERIVATIVE INHIBITOR, AND PREPARATION METHOD THEREFOR AND USE THEREOF” (Shanghai Hansoh Biomedical Co., Ltd., priority 2022, dated 2024).
